Experimental data as given in US20110081293A1, “METHODS AND COMPOSITIONS RELATED TO CLOT-BINDING LIPID COMPOUNDS” (SANFORD-BURNHAM MEDICAL RESEARCH INSTITUTE, priority 2009, published 2011).
No end group written: not given here. fluorescent dye = not defined here

Assays:
MDA-MB-435 tumor = assay: Whole animal imaging of Alexa Fluor 647-labeled CREKA; format: in vivo, mouse; conditions: peptide labeled with Alexa 647
Experimental: (A). Balb/c nude mice bearing MDA-MB-435 human breast cancer xenograft tumors or transgenic MMTV PyMT mice with breast tumors were intravenously injected with 0.1 mg of fluorescein-CREKA. The animals were sacrificed by perfusion 24 hours post-injection and tissue sections were examined by fluorescent microscopy. Right panel, control organs of MDA-MB 435 tumor mice. Magnification 200×. (B). Whole animal imaging of MDA-MB-435 tumor mouse injected 6 hours earlier with 30 μg of Alexa Fluor 647-labeled CREKA. Maestro imaging system (Cambridge Research Inc., Woburn, Mass.) was used to acquire and process the image. The arrow points to the tumor and the arrowhead to the urinary bladder.

PyMT tumors = assay: Tumor homing of intravenously injected fluorescent CREKA peptide; format: in vivo, mice; conditions: minutes to hours after the injection
Experimental: (§1) Phage screening, tumors and peptides. In vivo screening of a peptide library with the general structure of CX7C (SEQ ID NO: 4), where C is cysteine and X is any amino acid, was carried out as described (Oh 2004) using 65- to 75-day-old transgenic MMTV PyMT mice (Hutchinson 2000). These mice express the polyoma virus middle T antigen (MT) under the transcriptional control of the mouse mammary tumor virus (MMTV), leading to the induction of multi-focal mammary tumors in 100% of carriers. MDA-MB-435 tumors in nude mice and peptide synthesis have been described (Laakkonen 2002; Laakkonen 2004). B16F1 murine melanoma tumors were grown in fibrinogen null mice (Suh 1995) and their normal littermates and used when they reached 0.5-1 cm in size (Pilch 2006).

[1] = system: MDA-MB-435 human breast cancer xenografts; assay: as above; format: in vivo, mice
Experimental: as §1

B16F1 melanomas = assay: CREKA peptide homing in fibrinogen null mice and normal littermates; format: in vivo
Experimental: as §1

“cys-arg-glu-lys-ala ({fluorescent dye}-CREKA; reading uncertain; also: dye identity not given here) [CREKA peptide]” was tested, and the “whole body imaging, peptide accumulation” value (MDA-MB-435 tumor) was “peptide accumulation in the breast cancer xenografts, and in the bladder”, the “detection of intravenously injected peptide in tumors” value (PyMT tumors) was “readily detectable” and the “detection of intravenously injected peptide in tumors” value ([1]; MDA-MB-435 xenografts, minutes to hours after the injection) was “readily detectable”. The “detection of peptide in normal tissues” value ([1]; normal tissues) was “essentially undetectable”, the “accumulation in B16F1 melanomas” value (B16F1 melanomas; fibrinogen null mice) was “failed to accumulate” and the “accumulation in B16F1 tumors” value (B16F1 melanomas; normal littermates of the null mice) was “formed a brightly fluorescent meshwork”.
